Where two headings read alike, the source gives them in different places.
Key:
[1] = pharmacokinetics of prucalopride in plasma after single oral administration to beagle dogs; type: in vivo; settings: for Cmax / Tmax: dog, plasma, po, 2.5 mg/kg; for Cmax: read-out: Cmax peak plasma concentration of prucalopride; for Tmax: read-out: Tmax time to reach the peak plasma concentration of prucalopride
Description: Two male beagle dogs were dosed orally with 1 ml of a test formulation comprising 2.5 mg/kg of 4-amino-5-chloro-2,3-dihydro-N-[1-(3-methoxypropyl)-4-piperidinyl]-7-benzofuran-carboxamide (“prucalopride”).
After a wash-out period of four weeks, the same two dogs were dosed orally with 1 ml of a test formulation comprising 2.61 mg/kg of compound (1).
Blood samples were taken via the jugular vein immediately before dosing (blank sample) and at 0.25 h, 0.5 h, 1 h, 1.5 h, 2 h, 4 h, 6 h, 8 h, and 24 h after dosing. Aliquots of 10 ml were collected in EDTA tubes. Immediately after collection of the blood samples, plasma samples were prepared by centrifugation at approximately 1700×g for approximately 10 minutes.
Concentrations of prucalopride in the plasma samples were determined by LC/MS/MS. The quantification limit for prucalopride was 5.0 ng/ml.
Based on the individual plasma concentration-time data, using the actual sampling times, the following pharmacokinetic parameters were determined for prucalopride after oral administration of prucalopride and compound (1) and summarized in Table 1. • Cmax peak plasma concentration, determined by visual inspection of the data • Tmax time to reach the peak plasma concentration, determined by visual inspection of the data. • AUC0-∞ area under the plasma concentration-time extrapolated to infinity

5-HT2A receptors = 5-HT2A receptors (Homo sapiens, UniProt P28223); settings: in words; cited from earlier work
Sequence of 5-HT2A receptors (P28223 whole entry): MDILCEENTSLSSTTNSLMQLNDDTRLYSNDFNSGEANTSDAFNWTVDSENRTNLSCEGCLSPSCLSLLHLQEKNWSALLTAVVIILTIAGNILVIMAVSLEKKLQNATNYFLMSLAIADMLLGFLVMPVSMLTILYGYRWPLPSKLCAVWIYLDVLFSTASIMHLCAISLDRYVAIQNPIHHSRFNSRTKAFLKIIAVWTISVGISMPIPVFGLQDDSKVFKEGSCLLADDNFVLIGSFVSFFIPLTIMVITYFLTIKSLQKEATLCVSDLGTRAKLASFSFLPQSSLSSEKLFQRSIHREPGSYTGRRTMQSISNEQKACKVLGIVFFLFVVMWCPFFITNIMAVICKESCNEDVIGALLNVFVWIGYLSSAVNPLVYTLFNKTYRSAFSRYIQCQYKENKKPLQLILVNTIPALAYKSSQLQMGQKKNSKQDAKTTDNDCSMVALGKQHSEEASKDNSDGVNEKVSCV

5-HT3A receptors = target: T1, 5-HT3A receptors (Homo sapiens, UniProt P46098); settings: in words; cited from earlier work
T1 sequence (P46098 24-478): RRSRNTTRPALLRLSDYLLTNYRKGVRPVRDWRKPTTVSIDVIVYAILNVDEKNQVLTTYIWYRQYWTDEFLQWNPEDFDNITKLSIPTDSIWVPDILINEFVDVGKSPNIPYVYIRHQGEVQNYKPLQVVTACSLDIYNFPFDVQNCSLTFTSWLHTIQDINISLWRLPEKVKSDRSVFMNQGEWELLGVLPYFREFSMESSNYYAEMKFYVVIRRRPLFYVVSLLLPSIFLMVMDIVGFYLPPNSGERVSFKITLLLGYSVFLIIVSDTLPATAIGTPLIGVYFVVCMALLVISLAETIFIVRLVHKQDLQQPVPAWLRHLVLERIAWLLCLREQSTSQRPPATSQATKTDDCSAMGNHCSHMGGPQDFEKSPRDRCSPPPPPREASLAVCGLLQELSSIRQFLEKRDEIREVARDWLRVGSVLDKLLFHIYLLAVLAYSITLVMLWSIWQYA

5-HT4 receptors = 5-HT4 receptors (Homo sapiens, UniProt Q13639); settings: in words; cited from earlier work
Sequence of 5-HT4 receptors (Q13639 whole entry): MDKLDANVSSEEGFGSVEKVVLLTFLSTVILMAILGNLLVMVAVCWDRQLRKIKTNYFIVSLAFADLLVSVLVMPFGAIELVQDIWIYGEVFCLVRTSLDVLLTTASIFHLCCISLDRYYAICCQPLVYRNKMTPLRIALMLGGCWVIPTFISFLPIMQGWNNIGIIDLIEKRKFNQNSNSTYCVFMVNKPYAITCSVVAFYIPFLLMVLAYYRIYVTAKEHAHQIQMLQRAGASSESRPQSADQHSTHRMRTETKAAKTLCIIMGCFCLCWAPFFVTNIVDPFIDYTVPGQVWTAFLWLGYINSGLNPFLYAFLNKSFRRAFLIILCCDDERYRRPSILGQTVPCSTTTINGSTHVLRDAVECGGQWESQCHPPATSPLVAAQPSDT

colon = settings: in words, cited from earlier work
[2] = Dog 1, oral administration of compound (1) 2.61 mg/kg, prucalopride measured in plasma
[3] = Dog 2, oral administration of compound (1) 2.61 mg/kg, prucalopride measured in plasma
[4] = oral administration, dogs, in words
[5] = male, beagle, Dog 1, oral administration of prucalopride 2.5 mg/kg, prucalopride measured in plasma
[6] = male, beagle, Dog 2, oral administration of prucalopride 2.5 mg/kg, prucalopride measured in plasma

| SMILES | AUC0-∞ area under the plasma concentration-time extrapolated to infinity, prucalopride [1, 2] [ng·h/mL] | Cmax peak plasma concentration of prucalopride [1, 2] [ng/mL] | Tmax time to reach the peak plasma concentration of prucalopride [1, 2] [h] | AUC0-∞ area under the plasma concentration-time extrapolated to infinity, prucalopride [1, 3] [ng·h/mL] | Cmax peak plasma concentration of prucalopride [1, 3] [ng/mL] | Tmax time to reach the peak plasma concentration of prucalopride [1, 3] [h] | peak plasma concentration Cmax of prucalopride, compared with oral prucalopride [1, 4] | systemic exposure to prucalopride, compared with oral prucalopride itself [1, 4] | AUC0-∞ area under the plasma concentration-time extrapolated to infinity, prucalopride ([1]; Dog 2, oral administration of prucalopride 2.5 mg/kg, prucalopride measured in plasma) [ng·h/mL] | Cmax [1, 5] [ng/mL] | Tmax [1, 5] [h] | Cmax [1, 6] [ng/mL] | Tmax [1, 6] [h] | AUC(0-inf) ([1]; male, beagle, Dog 1, oral administration of prucalopride 2.5 mg/kg, prucalopride measured in plasma, read-out: AUC0-∞ area under the plasma concentration-time extrapolated to infinity, prucalopride) [ng·h/mL] | affinity for 5-HT2A receptors (5-HT2A receptors) | affinity for 5-HT3A receptors (5-HT3A receptors) | agonism of 5-HT4 receptors (5-HT4 receptors) | colonic motility and defecation (colon; animals) | giant contractions in the colon (colon; propagated over the length of the colon as a peristaltic wave) |
| --- | --- | --- | --- | --- | --- | --- | --- | --- | --- | --- | --- | --- | --- | --- | --- | --- | --- | --- | --- |
| COCCC[N@+]1([O-])CC[C@@H](NC(=O)c2cc(Cl)c(N)c3c2OCC3)CC1.O [compound (1), cis-4-amino-5-chloro-2,3-dihydro-N-[1-(3-methoxypropyl)-4-piperidinyl]-7-benzofurancarboxamide, N-oxide monohydrate] | 2265 | 222 | 2.0 | 4093 | 488 | 2.0 | lower | substantially lower | – | – | – | – | – | – | – | – | – | – | – |
| COCCCN1CCC(NC(=O)c2cc(Cl)c(N)c3c2OCC3)CC1 [prucalopride, 4-amino-5-chloro-2,3-dihydro-N-[1-(3-methoxypropyl)-4-piperidinyl]-7-benzofuran-carboxamide] | – | – | – | – | – | – | – | – | 4372 | 556 | 1 | 660 | 0.5 | 4230 | no affinity | no affinity | potent and selective agonist | stimulates colonic motility and defecation | induces giant contractions in the colon |
